Assay results as given in PubChem BioAssay (NCI).
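GI50 = concentration required for 50% inhibition of growth. TGI marks complete inhibition of growth.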

Legend:
Assay in all cases: NCI anticancer screen, dose series, 384-well format
A549 NSCLC = test system: A549 NSCLC
K-562 leukemia = test system: K-562 leukemia
EKVX NSCLC = test system: EKVX NSCLC
HOP-92 NSCLC = test system: HOP-92 NSCLC
SK-MEL-5 melanoma = test system: SK-MEL-5 melanoma
TK-10 renal = test system: TK-10 renal
RXF 393 renal = test system: RXF 393 renal
T-47D breast = test system: T-47D breast
SNB-75 CNS = test system: SNB-75 CNS
HCC-2998 colon = test system: HCC-2998 colon
BT-549 breast = test system: BT-549 breast
UACC-62 melanoma = test system: UACC-62 melanoma
MCF7 breast = test system: MCF7 breast
SF-295 CNS = test system: SF-295 CNS
SR leukemia = test system: SR leukemia
HCT-15 colon = test system: HCT-15 colon
SF-268 CNS = test system: SF-268 CNS
786-0 renal = test system: 786-0 renal
OVCAR-8 ovarian = test system: OVCAR-8 ovarian
DU-145 prostate = test system: DU-145 prostate
NCI-H322M lung = test system: NCI-H322M lung
CCRF-CEM leukemia = test system: CCRF-CEM leukemia
NCI-H460 NSCLC = test system: NCI-H460 NSCLC
RPMI-8226 leukemia = test system: RPMI-8226 leukemia
MDA-MB-435 melanoma = test system: MDA-MB-435 melanoma
MDA-MB-231 breast = test system: MDA-MB-231 breast
HCT-116 colon = test system: HCT-116 colon
OVCAR-4 ovarian = test system: OVCAR-4 ovarian
SF-539 CNS = test system: SF-539 CNS
MOLT-4 leukemia = test system: MOLT-4 leukemia
SK-OV-3 ovarian = test system: SK-OV-3 ovarian
CAKI-1 renal = test system: CAKI-1 renal
SNB-19 CNS = test system: SNB-19 CNS
MDA-MB-468 breast = test system: MDA-MB-468 breast
UO-31 renal = test system: UO-31 renal
KM12 colon = test system: KM12 colon
NCI-H23 lung = test system: NCI-H23 lung
MALME-3M melanoma = test system: MALME-3M melanoma
SW-620 colon = test system: SW-620 colon
NCI-H522 lung = test system: NCI-H522 lung
HL-60(TB) leukemia = test system: HL-60(TB) leukemia
SN12C renal = test system: SN12C renal
PC-3 prostate = test system: PC-3 prostate
A498 renal = test system: A498 renal
HT29 colon = test system: HT29 colon
IGROV1 ovarian = test system: IGROV1 ovarian
OVCAR-3 ovarian = test system: OVCAR-3 ovarian
ACHN renal = test system: ACHN renal
COLO 205 colon = test system: COLO 205 colon
UACC-257 melanoma = test system: UACC-257 melanoma
NCI-H226 lung = test system: NCI-H226 lung
NCI/ADR-RES ovarian = test system: NCI/ADR-RES ovarian
OVCAR-5 ovarian = test system: OVCAR-5 ovarian
HOP-62 NSCLC = test system: HOP-62 NSCLC
U251 glioblastoma = test system: U251 glioblastoma
SK-MEL-28 melanoma = test system: SK-MEL-28 melanoma

With `O=C(Cc1cccc(OC(F)(F)F)c1)Nc1ccc(CCCCc2nnc(NC(=O)Cc3ccccn3)s2)nn1` the GI50 (A549 NSCLC) was 0.0172 µM, the TGI (A549 NSCLC) was 0.061 µM and the GI50 (K-562 leukemia) was 8.95 µM. The TGI (K-562 leukemia) was over 100 µM, the GI50 (EKVX NSCLC) was 2.74 µM and the TGI (EKVX NSCLC) was over 100 µM. The GI50 (HOP-92 NSCLC) was 6.95 µM, the TGI (HOP-92 NSCLC) was 32.4 µM and the GI50 (SK-MEL-5 melanoma) was 0.891 µM. For the same molecule, the TGI (SK-MEL-5 melanoma) was 17.2 µM, the GI50 (TK-10 renal) was 0.637 µM and the TGI (TK-10 renal) was 18.3 µM. The GI50 (RXF 393 renal) was 0.0372 µM, the TGI (RXF 393 renal) was 0.141 µM and the GI50 (T-47D breast) was 1.87 µM. For the same molecule, the TGI (T-47D breast) was 9.66 µM, the GI50 (SNB-75 CNS) was 18.5 µM and the TGI (SNB-75 CNS) was 55.9 µM. It also gave a TGI (HCC-2998 colon) of over 100 µM, a GI50 (BT-549 breast) of 2.26 µM and a TGI (BT-549 breast) of 11.2 µM. For the same molecule, the GI50 (UACC-62 melanoma) was 4.76 µM, the TGI (UACC-62 melanoma) was over 33.5 µM and the GI50 (MCF7 breast) was 6.1 µM. The TGI (MCF7 breast) was over 100 µM, the GI50 (SF-295 CNS) was 5.17 µM and the TGI (SF-295 CNS) was over 23.1 µM. It also gave a GI50 (SR leukemia) of 0.439 µM, a TGI (SR leukemia) of 18.7 µM and a GI50 (HCT-15 colon) of over 72.6 µM. It also gave a TGI (HCT-15 colon) of over 100 µM, a GI50 (SF-268 CNS) of 0.201 µM and a TGI (SF-268 CNS) of 1.98 µM. The GI50 ([…]-0 renal) was 0.0294 µM, the TGI (786-0 renal) was 0.248 µM and the GI50 (OVCAR-8 ovarian) was 1.22 µM. For the same molecule, the TGI (OVCAR-8 ovarian) was 17.3 µM, the GI50 (DU-145 prostate) was 31.4 µM and the TGI (DU-145 prostate) was over 100 µM. The GI50 (NCI-H322M lung) was 0.0199 µM, the TGI (NCI-H322M lung) was 0.0551 µM and the GI50 (CCRF-CEM leukemia) was 0.375 µM. The TGI (CCRF-CEM leukemia) was over 100 µM, the GI50 (NCI-H460 NSCLC) was 0.165 µM and the TGI (NCI-H460 NSCLC) was 19.2 µM. The GI50 (RPMI-8226 leukemia) was 0.0377 µM, the TGI (RPMI-8226 leukemia) was 0.175 µM and the GI50 (MDA-MB-435 melanoma) was over 100 µM. The TGI (MDA-MB-435 melanoma) was over 100 µM, the GI50 (MDA-MB-231 breast) was 0.0339 µM and the TGI (MDA-MB-231 breast) was 18.8 µM. It also gave a GI50 (HCT-116 colon) of 0.162 µM, a TGI (HCT-116 colon) of over 33.4 µM and a GI50 (OVCAR-4 ovarian) of 9.65 µM. For the same molecule, the TGI (OVCAR-4 ovarian) was over 31.1 µM, the GI50 (SF-539 CNS) was 0.224 µM and the TGI (SF-539 CNS) was 14.4 µM. The GI50 (MOLT-4 leukemia) was 2.04 µM, the TGI (MOLT-4 leukemia) was over 100 µM and the GI50 (SK-OV-3 ovarian) was 0.0809 µM. It also gave a TGI (SK-OV-3 ovarian) of 25.2 µM, a GI50 (CAKI-1 renal) of 0.193 µM and a TGI (CAKI-1 renal) of 18 µM. The GI50 (SNB-19 CNS) was 39.4 µM, the TGI (SNB-19 CNS) was 97.2 µM and the GI50 (MDA-MB-468 breast) was 8.47 µM. The TGI (MDA-MB-468 breast) was 93.3 µM, the GI50 (UO-31 renal) was 5.66 µM and the GI50 (KM12 colon) was 0.068 µM. For the same molecule, the TGI (KM12 colon) was over 100 µM, the GI50 (NCI-H23 lung) was 4.78 µM and the TGI (NCI-H23 lung) was 39.6 µM. The GI50 (MALME-3M melanoma) was 23.1 µM, the TGI (MALME-3M melanoma) was over 56.7 µM and the GI50 (SW-620 colon) was over 100 µM. It also gave a TGI (SW-620 colon) of over 100 µM, a GI50 (NCI-H522 lung) of 0.075 µM and a TGI (NCI-H522 lung) of 4.05 µM. For the same molecule, the GI50 (HL-60(TB) leukemia) was 0.687 µM, the TGI (HL-60(TB) leukemia) was over 100 µM and the GI50 (SN12C renal) was 0.0217 µM. It also gave a GI50 (PC-3 prostate) of over 100 µM, a TGI (PC-3 prostate) of over 100 µM and a GI50 (A498 renal) of 0.0303 µM. The TGI (A498 renal) was 0.16 µM, the GI50 (HT29 colon) was over 100 µM and the TGI (HT29 colon) was over 100 µM. It also gave a GI50 (IGROV1 ovarian) of over 31.6 µM, a TGI (IGROV1 ovarian) of over 31.6 µM and a GI50 (OVCAR-3 ovarian) of over 21.4 µM. For the same molecule, the TGI (OVCAR-3 ovarian) was over 100 µM, the GI50 (ACHN renal) was 2.52 µM and the TGI (ACHN renal) was over 71 µM. The GI50 (COLO 205 colon) was 36.2 µM, the TGI (COLO 205 colon) was over 100 µM and the GI50 (UACC-257 melanoma) was 14.4 µM. For the same molecule, the TGI (UACC-257 melanoma) was 48 µM, the GI50 (NCI-H226 lung) was 0.282 µM and the TGI (NCI-H226 lung) was 0.983 µM. For the same molecule, the GI50 (NCI/ADR-RES ovarian) was over 100 µM, the TGI (NCI/ADR-RES ovarian) was over 100 µM and the GI50 (OVCAR-5 ovarian) was 0.362 µM. The TGI (OVCAR-5 ovarian) was over 100 µM, the GI50 (HOP-62 NSCLC) was 0.0537 µM and the TGI (HOP-62 NSCLC) was 0.335 µM. It also gave a GI50 (U251 glioblastoma) of 0.0338 µM, a TGI (U251 glioblastoma) of 11.8 µM and a GI50 (SK-MEL-28 melanoma) of 30.8 µM. The TGI (SK-MEL-28 melanoma) was over 87.1 µM.
